Experimental data: US10662413B2, “Recombinant DNA polymerase for improved incorporation of nucleotide analogues” (PERSONAL GENOMICS, INC., priority 2016, dated 2020)
Where a chain is given by its changes, count along the chain named. Names and notes keep the numbering of the source.

Experiments:
[1] = molecular target: T1, 9°N-I DNA polymerase (Thermococcus sp., UniProt Q56366, A485L/D141A/E143A); experiment: Pre-steady state kinetic assay; type: biochemical, Thermococcus sp. 9° N-7 strain; conditions: 30° C.
T1 construct: made in house; host or cells: E. coli BL21
Description: The rate of incorporation of the correct base onto the 25/36 mer duplex was determined in a reaction. The reaction was initiated by combining the solution containing the enzyme and DNA substrate with the second solution containing Mg^2+/dNTP. The reaction was quenched with 0.25 M EDTA (final concentration), pH 8.0. A rapid quench instrument (KinTek Instrument Corp., State College, Pa.) was used for reaction times ranging from 20 ms to 20 s.

[2] = molecular target: T2, Klenow (exo-) fragment DNA polymerase (Escherichia coli, UniProt P00582, D355A/E357A); type: biochemical; conditions: PEP assay, read-out: Average IC50 ± SD
T2 construct: Klenow (exo-) fragment DNA polymerase; purchased New England Biolabs
Description: (§1) Accordingly, the end-point concentration, IC50 value, of the respective nucleotide was calculated.

[3] = molecular target: T3, 9°N-III DNA polymerase (Thermococcus sp., UniProt Q56366, A485L/D141A/E143A/L408S/P410V/Y409A); type: biochemical, Thermococcus sp. 9° N-7 strain; conditions: PEP assay, read-out: Average IC50 ± SD
T3 construct: 6x histidine tag (C); made in house; host or cells: E. coli BL21
Description: as §1

[4] = molecular target: T4, Bst-Lg (Bst Large fragment DNA polymerase) (Geobacillus stearothermophilus, UniProt P52026); experiment: Polymerase end point (PEP) assay; type: biochemical; conditions: read-out: Average IC50 ± SD
T4 construct: Bst Large fragment DNA polymerase; purchased New England Biolabs
T4 sequence (P52026 289-876 limits assumed): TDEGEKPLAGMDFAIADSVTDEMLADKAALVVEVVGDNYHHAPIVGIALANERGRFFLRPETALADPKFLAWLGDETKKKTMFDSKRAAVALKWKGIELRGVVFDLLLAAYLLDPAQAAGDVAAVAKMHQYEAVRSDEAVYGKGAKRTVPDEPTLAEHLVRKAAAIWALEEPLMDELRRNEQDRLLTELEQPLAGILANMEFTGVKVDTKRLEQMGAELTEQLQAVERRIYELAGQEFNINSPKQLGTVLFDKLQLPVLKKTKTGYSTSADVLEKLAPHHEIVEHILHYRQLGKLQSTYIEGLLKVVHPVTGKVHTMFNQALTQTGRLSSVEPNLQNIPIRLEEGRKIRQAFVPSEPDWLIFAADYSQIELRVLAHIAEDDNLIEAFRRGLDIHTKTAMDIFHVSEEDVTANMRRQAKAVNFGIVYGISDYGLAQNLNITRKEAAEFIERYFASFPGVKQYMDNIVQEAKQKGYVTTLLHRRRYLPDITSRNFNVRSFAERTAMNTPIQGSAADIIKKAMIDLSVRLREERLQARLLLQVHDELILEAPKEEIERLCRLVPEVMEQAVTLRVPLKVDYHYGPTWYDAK
Description: as §1

[5] = molecular target: THN (Therminator); experiment: Polymerase end point (PEP) assay; type: biochemical; conditions: read-out: Average IC50 ± SD
Description: as §1

[6] = tested on: 5′Q-3′-Ga
[7] = tested on: 5′Q-3′-Ga; type: biochemical; conditions: KOD^exo− background

Nc1ncnc2c1ncn2[C@H]1C[C@H](O)[C@@H](COP(=O)(O)OP(=O)(O)OP(=O)(O)O)O1 [dATP] gave a Kd [1] of 8 µM, a kpol [1] of 132.4 s⁻¹ and a kpol/Kd [1] of 16.55 µM⁻¹ s⁻¹. For the same molecule, the IC50 [2] was 0.589 ± 0.008 nM, the IC50 [3] was 14 ± 0.6 nM and the IC50 [4] was 2.54 ± 0.067 nM. For the same molecule, the IC50 [5] was 0.526 ± 0.008 nM.

B1: D480I: 9° N-III mutant D480I, nucleotide binding pocket (protein)
chain: MILDTDYITENGKPVIRVFKKENGEFKIEYDRTFEPYFYALLKDDSAIEDVKKVTAKRHGTVVKVKRAEKVQKKFLGRPIEVWKLYFNHPQDVPAIRDRIRAHPAVVDIYEYDIPFAKRYLIDKGLIPMEGDEELTMLAFAIATLYHEGEEFGTGPILMISYADGSEARVITWKKIDLPYVDVVSTEKEMIKRFLRVVREKDPDVLITYNGDNFDFAYLKKRCEELGIKFTLGRDGSEPKIQRMGDRFAVEVKGRIHFDLYPVIRRTINLPTYTLEAVYEAVFGKPKEKVYAEEIAQAWESGEGLERVARYSMEDAKVTYELGREFFPMEAQLSRLIGQSLWDVSRSSTGNLVEWFLLRKAYKRNELAPNKPDERELARRRGGYAGGYVKEPERGLWDNIVYLDFRSSAVSIIITHNVSPDTLNREGCKEYDVAPEVGHKFCKDFPGFIPSLLGDLLEERQKIKRKMKATVDPLEKKLLIYRQRLIKILANSFYGYYGYAKARWYCKECAESVTAWGREYIEMVIRELEEKFGFKVLYADTDGLHATIPGADAETVKKKAKEFLKYINPKLPGLLELEYEGFYVRGFFVTKKKYAVIDEEGKITTRGLEIVRRDWSEIAKETQARVLEAILKHGDVEEAVRIVKEVTEKLSKYEVPPEKLVIHEQITRDLRDYKATGPHVAVAKRLAARGVKIRPGTVISYIVLKGSGRIGDRAIPADEFDPTKHRYDAEYYIENQVLPAVERILKAFGYRKEDLRYQKTKQVGLGAWLKVKGKK
In the case of B1, the “conversion rate (C.R.) of extension product” value (“conversion rate” below) [6] is reported as 82%.

B2: D480M: 9° N-III mutant D480M, nucleotide binding pocket (protein)
chain: B1 chain with I480M
B2 was tested, and the “conversion rate” value [6] was 80%.

B3: D480P: 9° N-III mutant D480P, nucleotide binding pocket (protein)
chain: B1 chain with I480P
With B3 the “conversion rate” value [6] was 82%.

B4: D480N: KOD^exo− mutant D480N (protein)
chain: B1 chain with I480N
With B4 the “conversion of 5′Q-3′-Ga” value [7] was 83%.

B5: D480W: KOD^exo− mutant D480W (protein)
chain: B1 chain with I480W
For B5, the “conversion of 5′Q-3′-Ga” value [7] was 77%.

B6: D480H: KOD^exo− mutant D480H (protein)
chain: B1 chain with I480H
In the case of B6, the “conversion of 5′Q-3′-Ga” value [7] is reported as 84%.

B7: KOD^exo−: KOD^exo− DNA polymerase with mutations at residues 141 and 143 (SEQ ID NO: 5) (protein)
chain: MILDTDYITEDGKPVIRIFKKENGEFKIEYDRTFEPYFYALLKDDSAIEEVKKITAERHGTVVTVKRVEKVQKKFLGRPVEVWKLYFTHPQDVPAIRDKIREHPAVIDIYEYDIPFAKRYLIDKGLVPMEGDEELKMLAFAIATLYHEGEEFAEGPILMISYADEEGARVITWKNVDLPYVDVVSTEREMIKRFLRVVKEKDPDVLITYNGDNFDFAYLKKRCEKLGINFALGRDGSEPKIQRMGDRFAVEVKGRIHFDLYPVIRRTINLPTYTLEAVYEAVFGQPKEKVYAEEITTAWETGENLERVARYSMEDAKVTYELGKEFLPMEAQLSRLIGQSLWDVSRSSTGNLVEWFLLRKAYERNELAPNKPDEKELARRRQSYEGGYVKEPERGLWENIVYLDFRSLYPSIIITHNVSPDTLNREGCKEYDVAPQVGHRFCKDFPGFIPSLLGDLLEERQKIKKKMKATIDPIERKLLDYRQRAIKILANSYYGYYGYARARWYCKECAESVTAWGREYITMTIKEIEEKYGFKVIYSDTDGFFATIPGADAETVKKKAMEFLKYINAKLPGALELEYEGFYKRGFFVTKKKYAVIDEEGKITTRGLEIVRRDWSEIAKETQARVLEALLKDGDVEKAVRIVKEVTEKLSKYEVPPEKLVIHEQITRDLKDYKATGPHVAVAKRLAARGVKIRPGTVISYIVLKGSGRIGDRAIPFDEFDPTKHKYDAEYYIENQVLPAVERILRAFGYRKEDLRYQKTRQVGLSAWLKPKGT
modifications: Thermococcus kodakarensis kod1; KODexo- DNA polymerase
B7 was tested, and the “conversion of 5′Q-3′-Ga” value [7] was 37%.
